Measurements from patent US20050042354A1, “Antiradicals and fat compositions, foods, drinks, drugs or feeds containing the antiradicals” (priority 2001, published 2005).

Test: Trolox relative activity in ORAC method (antiradical activity in serum)
Assay type: biochemical, human
Conditions: for Trolox relative activity: ORAC method, human blood serum, 60-μM 4-vinyl-2,6-dimethoxyphenol, 300-μM α-tocopherol
Method: 2) Trolox Relative Activity in ORAC Method
10 μl of a test substance in a designated concentration, or
6-hydroxy-2,5,7,8-tetramethylchroman-2-carboxylic acid (Trolox) solution is added to 10 μl of 200-fold diluted solution of human blood serum. Then, 180 μl of 3.73-mg/l β-phycoerythrin (β-PE) is added, and the mixture is preheated at 37° C. for 1 min. 10 μl of 80-mM 2,2′-azobis(2-amidinopropane)-dihydrochloride (AAPH) is then added, and the reaction is started at 37° C. For the dilution of the serum or reagents added, phosphate buffer (75 mM, pH 7.0) is used. As a control, this phosphate buffer is used in place of the test substance. Fluorescence intensity (Ex: 540 nm, Em: 565 nm) of the reactant is measured every 2 min after the start of the reaction, and the relationship between the fluorescence intensity (y-axis) and the time x-axis) is plotted on a graph. The area (S) enclosed by the obtained curve, x and y axes is calculated for the test substance, Trolox and the control. The antiradical activity of the test substance in the serum is calculated as a Trolox relative activity using the following equation. Trolox relative activity=(Test substance's S−Control's S)/(Trolox's S−Control's S)×(Trolox's concentration/Test substance's concentration) In this testing system, AAPH generates peroxyradicals, and the peroxyradicals oxidize the substrate β-PE, which results in a reaction to eliminate fluorescence of β-PE. Trolox is a derivative of water-soluble vitamin E, and is used as a standard substance of the antioxidation reaction in this testing system. These reaction substrate and standard substance are those used in an oxygen radical absorbance capacity (ORAC) method. The ORAC method is widely used to obtain antioxydation and antiradical activities of biological samples and natural materials as values relative to those of a standard substance, in an easy and accurate manner. (5) Rancimat Test

Compound	Trolox relative activity	Trolox relative activity in serum relative to α-tocopherol (in serum)
Cc1c(C)c2c(c(C)c1O)CC[C@@](C)(CCC[C@H](C)CCC[C@H](C)CCCC(C)C)O2 [compound 1, α-tocopherol, reference compound]	0.08	–
C=Cc1cc(OC)c(O)c(OC)c1 [Example 7, 4-vinyl-2,6-dimethoxyphenol]	0.58	approximately 7 folds
